“Also recorded” adds a separate entry of the source.
Columns and labels:
[1] = molecular target: T1, PKMYT1 (Homo sapiens, UniProt Q99640); test: PKMYT1 enzyme inhibition assay (LanthaScreen Eu kinase binding method); conditions: mean of two separate experiments
T1 sequence (Q99640 1-499): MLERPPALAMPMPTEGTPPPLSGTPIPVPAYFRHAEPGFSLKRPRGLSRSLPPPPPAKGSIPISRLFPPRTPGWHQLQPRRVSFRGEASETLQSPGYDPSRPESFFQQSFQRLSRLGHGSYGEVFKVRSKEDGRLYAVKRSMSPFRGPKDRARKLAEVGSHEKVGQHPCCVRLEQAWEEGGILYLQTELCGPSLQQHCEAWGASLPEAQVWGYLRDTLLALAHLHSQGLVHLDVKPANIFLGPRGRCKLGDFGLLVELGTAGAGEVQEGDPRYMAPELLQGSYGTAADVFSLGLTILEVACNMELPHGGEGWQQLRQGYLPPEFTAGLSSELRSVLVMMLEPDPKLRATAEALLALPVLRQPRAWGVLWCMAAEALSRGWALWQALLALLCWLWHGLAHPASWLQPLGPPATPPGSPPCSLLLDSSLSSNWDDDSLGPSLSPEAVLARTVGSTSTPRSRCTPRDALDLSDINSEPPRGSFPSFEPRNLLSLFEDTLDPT
Protocol: The PKMYT1 kinase assay was conducted with the LanthaScreen™ Eu kinase binding method, as provided by Thermo Fisher Scientific (Waltham, MA, USA). Initially, compounds were prepared at a concentration of 4 mM in DMSO and subsequently diluted to various concentrations in 1X buffer. […] The plate was then incubated in the dark at 25 °C for 1 h, and fluorescence signals were recorded at 665 nm and 615 nm.

[2] = system: HCC1569 cells; test: Cell proliferation assay (CCK-8), HCC1569; assay type: cell-based; conditions: CCNE1-amplified breast cancer cells, 5-day incubation, mean ± SD, n = 3
Protocol: (§1) HCC1569 and OVCAR3 cells (2 × 10^3/well) were seeded in 96-well plates and cultured for 24 h at 37 °C, 5% CO2. Compounds at varying concentrations were added, followed by 5-day incubation. Cell viability was assessed using Cell Counting Kit-8 (CCK-8) with absorbance measurement at 450 nm. HCC1569 (BNCC341698) was purchased from BNCC and OVCAR3 (CL-0178) was purchased from Procell.

[3] = system: OVCAR3 cells; test: Cell proliferation assay (CCK-8), OVCAR3; assay type: cell-based; conditions: CCNE1-amplified ovarian cancer cells, 5-day incubation, mean ± SD, n = 3
Protocol: as §1

[4] = system: A549 cells; test: Anti-proliferative activity in low-expressing CCNE1 cells A549; assay type: cell-based
[5] = system: BEAS-2B cells; test: Anti-proliferative activity in normal lung epithelial cells BEAS-2B; assay type: cell-based
[6] = system: OVCAR3 cells; test: Cell cloning (colony formation) assay; assay type: cell-based; conditions: OVCAR3, 14 days of incubation, varying concentrations
Protocol: OVCAR3 cells (4 × 10^3/well) were seeded into 6-well plates and incubated for 24 h at 37 °C in a 5% CO2 atmosphere. Compound MY-14 was then added at varying concentrations, followed by a 14-day incubation period. Subsequently, cells were fixed with a 4% paraformaldehyde solution and stained using crystal violet solution, after which colonies were quantified using ImageJ 1.54 software.

[7] = system: HCC1569 cells; test: Cell apoptosis assay (Annexin V-FITC/PI flow cytometry); assay type: cell-based; parameters: Q1 / Q2 / Q3 / Q4: unit not given here
Protocol: HCC1569 cells (1 × 10^5/well) were seeded in 6-well plates and cultured for 24 h at 37 °C, 5% CO2. MY-14 at varying concentrations were added, followed by 5-day incubation. Cells were trypsinized and pelleted by centrifugation. Subsequent analysis was performed per the Medilunbio kit protocol: staining was conducted with propidium iodide (PI) and Annexin V-FITC. After 15 min incubation, samples were analyzed by flow cytometry.

[8] = system: HCC1569 cells; test: Cell cycle assay (PI flow cytometry); assay type: cell-based
Protocol: HCC1569 cells (1 × 10^5/well) were seeded in 6-well plates and cultured for 24 h at 37 °C under 5% CO2. MY-14 at varying concentrations were added, followed by 5-day incubation. Cells were trypsinized, pelleted by centrifugation, and fixed with 70% ethanol. Subsequent staining was performed with propidium iodide (PI) and RNase A according to the Beyotime kit protocol. After 30 min incubation at 37 °C, samples were analyzed by flow cytometry.

With `CCOP(=O)(OCC)c1ccc(Nc2ncc(C(=O)Nc3c(C)ccc(O)c3C)c(N)n2)cc1` [MY-14] the IC50 [1] was 2.6 nM, the IC50 [2] was 1060 ± 180 nM and the IC50 ([2]; Homo sapiens, HCC1569, 120 h) was 1020 nM. For the same compound, the IC50 [3] was 800 ± 70 nM, the IC50 ([3]; Homo sapiens, OVCAR-3, 120 h) was 820 nM and the “cytotoxicity (in words)” value ([4]; A549, CCNE1-low) was “did not exhibit cytotoxicity; also recorded: reduced cytotoxicity”. For the same compound, the IC50 ([4]; Homo sapiens, A549, lung cancer cells, low CCNE1 expression, mean ± SD, n = 3) was greater than 8000 nM, the “cytotoxicity (in words)” value ([5]; BEAS-2B lung epithelial cells) was “did not exhibit cytotoxicity; also recorded: reduced cytotoxicity” and the IC50 ([5]; Homo sapiens, BEAS-2B, lung epithelial cells, mean ± SD, n = 3) was greater than 8000 nM. The “colony formation (in words)” value [6] was “inhibited colony formation in a dose-dependent manner”, the “apoptosis induction (in words)” value ([7]; HCC1569) was “induced apoptosis in a concentration-dependent manner; also recorded: induced apoptosis-mediated cell death” and the Q1 ([7]; HCC1569, 0.5 μM) was 4.66. The Q2 ([7]; HCC1569, 0.5 μM) was 0.51, the Q3 ([7]; HCC1569, 0.5 μM) was 18.6 and the Q4 ([7]; HCC1569, 0.5 μM) was 76.2. It also gave a Q1 ([7]; HCC1569, 1.0 μM) of 3.91, a Q2 ([7]; HCC1569, 1.0 μM) of 0.20 and a Q3 ([7]; HCC1569, 1.0 μM) of 21.2. For the same compound, the Q4 ([7]; HCC1569, 1.0 μM) was 74.7, the Q1 ([7]; HCC1569, 2.0 μM) was 4.24 and the Q2 ([7]; HCC1569, 2.0 μM) was 1.07. For the same compound, the Q3 ([7]; HCC1569, 2.0 μM) was 40.4, the Q4 ([7]; HCC1569, 2.0 μM) was 54.3 and the Q1 ([7]; HCC1569, 4.0 μM) was 4.11. For the same compound, the Q2 ([7]; HCC1569, 4.0 μM) was 1.14, the Q3 ([7]; HCC1569, 4.0 μM) was 46.3 and the Q4 ([7]; HCC1569, 4.0 μM) was 48.5. For the same compound, the maximal apoptotic rate ([7]; HCC1569, 5-day incubation) was 47.44%, the “cell-cycle arrest (in words)” value [8] was “arrested cell-cycle progression at the S-phase; also recorded: G1/S phase cell-cycle arrest” and the “distribution of G2/M-phase cells (in words)” value [8] was “no significant impact”. For the same compound, the “proportion of G1-phase cells (in words)” value [8] was “reducing the proportion of G1-phase cells” and the “proportion of S-phase cells (in words)” value [8] was “concentration-dependent increase in the proportion of S-phase cells”.

From article PMC12467068, “Design, Synthesis, and Computational Insights into PKMYT1 Inhibitors for the Treatment of Breast Cancer” (Biomedicines, 2025)
